This note sets out measurements from ChEMBL document CHEMBL6103579, “Antiproliferative activity of selenium-enriched coumarin derivatives on the SK-N-SH neuroblastoma cell line: Mechanistic insights” (Eur J Med Chem, 2025).

One series has as its system Neuroblastoma cell. Kind of series: Antiproliferative activity against human Neuroblastoma cell assessed as inhibition of cell growth incubated for 60 hrs by CCK-8 method. In kind it is functional, cell-based. (In general: Tetrazolium dyes change colour on reduction, which living cells bring about.)
Series [1] is described as follows: Antiproliferative activity against human Embryonic lung cell assessed as inhibition of cell growth incubated for 60 hrs by CCK-8 method. The series is classed as toxicity, cell-based.

Active and inactive are the calls of the source. The calls are words filed in the database; no cut-off is given here.

`COc1ccc(C2CC(c3ccc(F)cc3)=NN2C(=O)c2cc3ccc(OCCC[Se]C#N)cc3oc2=O)cc1` (centres undefined): in the series on Neuroblastoma cell, the outcome was Active. Also, in series [1], the Activity result was “Non-toxic”.
In the case of `N#C[Se]CCCOc1ccc2cc(C(=O)N3N=C(c4ccc(Br)cc4)CC3c3ccc(F)cc3)c(=O)oc2c1` (centres undefined), the result with Neuroblastoma cell was Active. In addition, the Activity result in series [1] was “Non-toxic”.
